# Results taken from patent US20210317092A1 (BAYER PHARMA AKTIENGESELLSCHAFT, priority 2016, published 2021).
# Target: T1, human Bradykinin B1 receptor (Homo sapiens, UniProt P46663)
# T1 construct: host or cells: CHO-K1
# T1 sequence (P46663 1-353): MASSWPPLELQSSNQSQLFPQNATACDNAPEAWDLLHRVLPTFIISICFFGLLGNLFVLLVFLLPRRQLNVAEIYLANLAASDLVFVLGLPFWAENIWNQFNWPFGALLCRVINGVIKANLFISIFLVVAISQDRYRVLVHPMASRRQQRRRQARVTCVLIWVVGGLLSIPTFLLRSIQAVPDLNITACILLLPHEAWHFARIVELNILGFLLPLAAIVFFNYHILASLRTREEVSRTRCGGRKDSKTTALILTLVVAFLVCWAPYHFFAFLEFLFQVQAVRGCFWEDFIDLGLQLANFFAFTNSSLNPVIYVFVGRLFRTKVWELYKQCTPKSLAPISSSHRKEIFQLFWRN
# Experiment: Calcium flux Assay (FLIPR) with recombinant CHO-K1 cells expressing human Bradykinin B1 receptor, in presence (hB1 IC50) or absence (hB1 free IC50) of 0.1% BSA
# Type: cell-based
# Details: in absence of 0.1% BSA, read-out: hB1 free IC50
row,Compound,IC50 [nM]
1,"O=C(Nc1ccc(-n2cc(C(F)(F)F)nn2)c(-c2nnn[nH]2)c1)C1(c2ccc(C(F)(F)F)cc2F)CC1 [Example 361, 1-[2-fluoro-4-(trifluoromethyl)phenyl]-N-{3-(1H-tetrazol-5-yl)-4-[4-(trifluoromethyl)-1H-1,2,3-triazol-1-yl]phenyl}cyclopro-panecarboxa-mide]",419
2,"O=C(Nc1ccc(-n2cnc(C(F)(F)F)c2)c(-c2nnn[nH]2)c1)C1(c2ccc(OC(F)(F)F)cc2F)CC1 [Example 362, 1-[2-Fluoro-4-(trifluoromethoxy)phenyl]-N-{3-(1H-tetrazol-5-yl)-4-[4-(trifluoromethyl)-1H-imidazol-1-yl]phenyl}cyclopro-panecarboxa-mide]",26.4
3,"O=C(Nc1ccc(-n2ccc(C(F)(F)F)n2)c(-c2nnn[nH]2)c1)C1(c2ccc(OC(F)(F)F)cc2F)CC1 [Example 363, 1-[2-Fluoro-4-(trifluoromethoxy)phenyl]-N-{3-(1H-tetrazol-5-yl)-4-[3-(trifluoromethyl)-1H-pyrazol-1-yl]phenyl}cyclopro-panecarboxa-mide]",37.1
4,"O=C(Nc1ccc(-n2cc(C(F)(F)F)cn2)c(-c2nnn[nH]2)c1)C1(c2ccc(OC(F)(F)F)cc2F)CC1 [Example 364, 1-[2-fluoro-4-(trifluoromethoxy)phenyl]-N-{3-(1H-tetrazol-5-yl)-4-[4-(trifluoromethyl)-1H-pyrazol-1-yl]phenyl}cyclopro-panecarboxa-mide]",12.7
5,"Cc1nc(C(F)(F)F)cn1-c1ccc(NC(=O)C2(c3ccc(OC(F)(F)F)cc3F)CC2)cc1-c1nnn[nH]1 [Example 365, 1-[2-Fluoro-4-(trifluoromethoxy)phenyl]-N-{4-[2-methyl-4-(trifluoromethyl)-1H-imidazol-1-yl]-3-(1H-tetrazol-5-yl)phenyl}cyclopro-panecarboxa-mide]",535
6,"Cc1nc(C(F)(F)F)cn1-c1ccc(NC(=O)C2(c3ccc(C(F)(F)F)cc3F)CC2)cc1-c1nnn[nH]1 [Example 370, 1-[2-Fluoro-4-(trifluoromethyl)phenyl]-N-{4-[2-methyl-4-(trifluoromethyl)-1H-imidazol-1-yl]-3-(1H-tetrazol-5-yl)phenyl}cyclopro-panecarboxa-mide]",873
7,"CCc1ccn(-c2ccc(NC(=O)C3(c4ccc(C(F)(F)F)cc4F)CC3)cc2-c2nnn[nH]2)n1 [Example 372, N-[4-(3-Ethyl-1H-pyrazol-1-yl)-3-(1H-tetrazol-5-yl)phenyl]-1-[2-fluoro-4-(trifluoromethyl)phenyl]cyclopro-panecarboxamide]",31.1
8,"CCc1ccn(-c2ccc(NC(=O)C3(c4ccc(OC(F)(F)F)cc4F)CC3)cc2-c2nnn[nH]2)n1 [Example 373, N-[4-(3-Ethyl-1H-pyrazol-1-yl)-3-(1H-tetrazol-5-yl)phenyl]-1-[2-fluoro-4-(trifluoromethoxy)phenyl]cyclo-propanecarboxa-mide]",24.2
9,"CCc1ccn(-c2ccc(NC(=O)C3(c4cccc(Cl)c4)CC3)cc2-c2nnn[nH]2)n1 [Example 374, 1-(3-Chlorophenyl)-N-[4-(3-ethyl-1H-pyrazol-1-yl)-3-(1H-tetrazol-5-yl)phenyl]cyclopro-panecarboxa-mide]",1890
10,"CCc1cnn(-c2ccc(NC(=O)C3(c4cccc(Cl)c4)CC3)cc2-c2nnn[nH]2)c1 [Example 378, 1-(3-Chlorophenyl)-N-[4-(4-ethyl-1H-pyrazol-1-yl)-3-(1H-tetrazol-5-yl)phenyl]cyclopro-panecarboxa-mide]",343
11,"CC(C)(C)c1ccn(-c2ccc(NC(=O)C3(c4ccc(OC(F)(F)F)cc4F)CC3)cc2-c2nnn[nH]2)n1 [Example 381, N-[4-(3-tert-Butyl-1H-pyrazol-1-yl)-3-(1H-tetrazol-5-yl)phenyl]-1-[2-fluoro-4-(trifluoromethoxy)phenyl]cyclo-propanecarboxa-mide]",36.7
12,"CC(C)(C)c1ccn(-c2ccc(NC(=O)C3(c4cccc(Cl)c4)CC3)cc2-c2nnn[nH]2)n1 [Example 382, N-[4-(3-tert-Butyl-1H-pyrazol-1-yl)-3-(1H-tetrazol-5-yl)phenyl]-1-(3-chlorophenyl)cyclo-propanecarbox-amide]",768
13,"O=C(Nc1ccc(-c2cc3ccccc3s2)c(-c2nnn[nH]2)c1)C1(c2cccc(Cl)c2)CC1 [Example 383, N-[4-(1-benzothiophen-2-yl)-3-(1H-tetrazol-5-yl)phenyl]-1-(3-chlorophenyl)cyclo-propanecarbox-amide]",142
14,"O=C(Nc1ccc(-c2cc3ccccc3s2)c(-c2nnn[nH]2)c1)C1(c2ccc(C(F)(F)F)cc2F)CC1 [Example 384, N-[4-(1-benzothiophen-2-yl)-3-(1H-tetrazol-5-yl)phenyl]-1-[2-fluoro-4-(trifluoromethyl)phenyl]cyclopro-panecarboxamide]",14.9
15,"O=C(Nc1ccc(-c2cc3ccccc3s2)c(-c2nnn[nH]2)c1)C1(c2ccc(F)c(F)c2)CC1 [Example 385, N-[4-(1-benzothiophen-2-yl)-3-(1H-tetrazol-5-yl)phenyl]-1-(3,4-difluorophenyl)cyclo-propanecar-boxamide]",54.7
16,"O=C(Nc1ccc(-n2ccc(CC(F)(F)F)n2)c(-c2nnn[nH]2)c1)C1(c2cccc(Cl)c2)CC1 [Example 386, 1-(3-chlorophenyl)-N-{3-(1H-tetrazol-5-yl)-4-[3-(2,2,2-trifluoroethyl)-1H-pyrazol-1-yl]phenyl}cyclopro-panecarboxa-mide]",146

# Next, values leading:
row,IC50 [nM],Compound
1,94.2,"Cc1ccc(C2(C(=O)Nc3ccc(-n4ccc(C(F)(F)F)n4)c(-c4nnn[nH]4)c3)CC2)c(F)c1 [Example 366, 1-(2-Fluoro-4-methylphenyl)-N-{3-(1H-tetrazol-5-yl)-4-[3-(trifluoromethyl)-1H-pyrazol-1-yl]phenyl}cyclopro-panecarboxa-mide]"
2,61.2,"Cc1ccc(C2(C(=O)Nc3ccc(-n4cnc(C(F)(F)F)c4)c(-c4nnn[nH]4)c3)CC2)c(F)c1 [Example 367, 1-(2-Fluoro-4-methylphenyl)-N-{3-(1H-tetrazol-5-yl)-4-[4-(trifluoromethyl)-1H-imidazol-1-yl]phenyl}cyclopro-panecarboxa-mide]"
3,26,"Cc1ccc(C2(C(=O)Nc3ccc(-n4cc(C(F)(F)F)cn4)c(-c4nnn[nH]4)c3)CC2)c(F)c1 [Example 368, 1-(2-Fluoro-4-methylphenyl)-N-{3-(1H-tetrazol-5-yl)-4-[4-(trifluoromethyl)-1H-pyrazol-1-yl]phenyl}cyclopro-panecarboxa-mide]"
4,1130,"Cc1ccc(C2(C(=O)Nc3ccc(-n4cc(C(F)(F)F)nc4C)c(-c4nnn[nH]4)c3)CC2)c(F)c1 [Example 369, 1-(2-Fluoro-4-methylphenyl)-N-{4-[2-methyl-4-(trifluoromethyl)-1H-imidazol-1-yl]-3-(1H-tetrazol-5-yl)phenyl}cyclopro-panecarboxa-mide]"
5,282,"CCc1ccn(-c2ccc(NC(=O)C3(c4ccc(C)cc4F)CC3)cc2-c2nnn[nH]2)n1 [Example 371, N-[4-(3-ethyl-1H-pyrazol-1-yl)-3-(1H-tetrazol-5-yl)phenyl]-1-(2-fluoro-4-methylphenyl)cyclo-propanecar-boxamide]"
6,60.6,"CCc1cnn(-c2ccc(NC(=O)C3(c4ccc(C)cc4F)CC3)cc2-c2nnn[nH]2)c1 [Example 375, N-[4-(4-Ethyl-1H-pyrazol-1-yl)-3-(1H-tetrazol-5-yl)phenyl]-1-(2-fluoro-4-methylphenyl)cy-clopropanecar-boxamide]"
7,12,"CCc1cnn(-c2ccc(NC(=O)C3(c4ccc(C(F)(F)F)cc4F)CC3)cc2-c2nnn[nH]2)c1 [Example 376, N-[4-(4-Ethyl-1H-pyrazol-1-yl)-3-(1H-tetrazol-5-yl)phenyl]-1-[2-fluoro-4-(trifluoromethyl)phenyl]cyclopro-panecarboxamide]"
8,6.57,"CCc1cnn(-c2ccc(NC(=O)C3(c4ccc(OC(F)(F)F)cc4F)CC3)cc2-c2nnn[nH]2)c1 [Example 377, N-[4-(4-ethyl-1H-pyrazol-1-yl)-3-(1H-tetrazol-5-yl)phenyl]-1-[2-fluoro-4-(trifluoromethoxy)phenyl]cyclo-propanecarboxa-mide]"
9,257,"Cc1ccc(C2(C(=O)Nc3ccc(-n4ccc(C(C)(C)C)n4)c(-c4nnn[nH]4)c3)CC2)c(F)c1 [Example 379, N-[4-(3-tert-Butyl-1H-pyrazol-1-yl)-3-(1H-tetrazol-5-yl)phenyl]-1-(2-fluoro-4-methylphenyl)cy-clopropanecar-boxamide]"
10,33.4,"Cc1ccc(C2(C(=O)Nc3ccc(-n4ccc(CC(F)(F)F)n4)c(-c4nnn[nH]4)c3)CC2)c(F)c1 [Example 388, 1-(2-fluoro-4-methylphenyl)-N-{3-(1H-tetrazol-5-yl)-4-[3-(2,2,2-trifluoroethyl)-1H-pyrazol-1-yl]phenyl}cyclopro-panecarboxa-mide]"
11,1890,"O=C(Nc1ccc(-n2cc(Cl)cn2)c(-c2nnn[nH]2)c1)C1(c2cccc(Cl)c2)CC1 [Example 391, 1-(3-chlorophenyl)-N-[4-(4-chloro-1H-pyrazol-1-yl)-3-(1H-tetrazol-5-yl)phenyl]cyclopro-panecarboxa-mide]"
12,187,"Cc1ccc(C2(C(=O)Nc3ccc(-n4cc(Cl)cn4)c(-c4nnn[nH]4)c3)CC2)c(F)c1 [Example 393, N-[4-(4-chloro-1H-pyrazol-1-yl)-3-(1H-tetrazol-5-yl)phenyl]-1-(2-fluoro-4-methylphenyl)cy-clopropanecar-boxamide]"
13,68.1,"O=C(Nc1ccc(-n2cc(Cl)cn2)c(-c2nnn[nH]2)c1)C1(c2ccc(C(F)(F)F)cc2F)CC1 [Example 394, N-[4-(4-chloro-1H-pyrazol-1-yl)-3-(1H-tetrazol-5-yl)phenyl]-1-[2-fluoro-4-(trifluoromethyl)phenyl]cyclopro-panecarboxamide]"
